Data: patent US8518931B2, “Compounds and compositions as kinase inhibitors” (IRM LLC, priority 2008, dated 2013)

Target: T1, NPM-ALK (Homo sapiens, UniProt Q9UM73)
T1 construct: nucleophosmin (NPM, NPM1; human P06748) fusion partner; expressed in transfected cells; host or cells: murine BaF3 cells (DSMZ), transfected with pCIneo (Promega) coding for NPM-ALK and selected with G418; the other entry of the earlier key: Npm1 (Q61937, Nucleophosmin)
Assay: NPM-ALK BaF3 assay (growth inhibition of BaF3-NPM-ALK cells)
Assay type: cell-based
Conditions: human NPM-ALK overexpressing murine BaF3 cells
From the text: The expression of NPM-ALK may be achieved by transfecting the BaF3 cell line with an expression vector pClneo™ (Promega Corp., Madison Wis., USA) coding for NPM-ALK and subsequent selection of G418 resistant cells. Non-transfected BaF3 cells depend on IL-3 for cell survival. In contrast, NPM-ALK expressing BaF3 cells (named BaF3-NPM-ALK hereinafter) can proliferate in the absence of IL-3 because they obtain proliferative signal through NPM-ALK kinase. Putative inhibitors of the NPM-ALK kinase therefore abolish the growth signal and may result in antiproliferative activity. The antiproliferative activity of putative inhibitors of the NPM-ALK kinase can however be overcome by addition of IL-3, which provides growth signals through an NPM-ALK independent mechanism. An analogous cell system using FLT3 kinase has also been described (see, E Weisberg et al. Cancer Cell; 1, 433-443 (2002)).
The inhibitory activity of the compounds of the invention may be determined as follows. In general, BaF3-NPM-ALK cells (15,000/microtitre plate well) are transferred to 96-well microtitre plates. Test compounds dissolved in dimethyl sulfoxide (DMSO) are added in a series of concentrations (dilution series) in such a manner that the final concentration of DMSO is not greater than 1% (v/v). After the addition, the plates are incubated for two days during which the control cultures without test compound are able to undergo two cell-division cycles. The growth of the BaF3-NPM-ALK cells is measured by means of YOPRO™ staining [T Idziorek et al. J. Immunol. Methods; 185: 249-258 (1995)]: 25 μl of lysis buffer comprising 20 mM sodium citrate, pH 4.0, 26.8 mM sodium chloride, 0.4% NP40, 20 mM EDTA and […] to each well. Cell lysis is completed within 60 min at room temperature and total amount of YOPRO™ bound to DNA is determined by measurement using the Cytofluor II 96-well reader (PerSeptive Biosystems) with the following settings: Excitation (nm) 485/20 and Emission (nm) 530/25.
IC50 values may be determined by a computer-aided system using the formula: IC50=[(ABStest−ABSstart)/(ABScontrol−ABSstart)]×100·(ABS=absorption)
In general, compounds of the invention have IC50 values from 1 nM to 10 μM. In some examples, compounds of the invention have IC50 values from 0.01 μM to 5 μM. In other examples, compounds of the invention have IC50 values from 0.01 μM to 1 μM, or more particularly from 1 nM to 1 μM.
Table 1 describes representative compounds of the invention, prepared following the procedures described above. IC50 values are as measured in an NPM-ALK BaF3 assay.

T1 sequence (Q9UM73 with tags, fused parts or gaps): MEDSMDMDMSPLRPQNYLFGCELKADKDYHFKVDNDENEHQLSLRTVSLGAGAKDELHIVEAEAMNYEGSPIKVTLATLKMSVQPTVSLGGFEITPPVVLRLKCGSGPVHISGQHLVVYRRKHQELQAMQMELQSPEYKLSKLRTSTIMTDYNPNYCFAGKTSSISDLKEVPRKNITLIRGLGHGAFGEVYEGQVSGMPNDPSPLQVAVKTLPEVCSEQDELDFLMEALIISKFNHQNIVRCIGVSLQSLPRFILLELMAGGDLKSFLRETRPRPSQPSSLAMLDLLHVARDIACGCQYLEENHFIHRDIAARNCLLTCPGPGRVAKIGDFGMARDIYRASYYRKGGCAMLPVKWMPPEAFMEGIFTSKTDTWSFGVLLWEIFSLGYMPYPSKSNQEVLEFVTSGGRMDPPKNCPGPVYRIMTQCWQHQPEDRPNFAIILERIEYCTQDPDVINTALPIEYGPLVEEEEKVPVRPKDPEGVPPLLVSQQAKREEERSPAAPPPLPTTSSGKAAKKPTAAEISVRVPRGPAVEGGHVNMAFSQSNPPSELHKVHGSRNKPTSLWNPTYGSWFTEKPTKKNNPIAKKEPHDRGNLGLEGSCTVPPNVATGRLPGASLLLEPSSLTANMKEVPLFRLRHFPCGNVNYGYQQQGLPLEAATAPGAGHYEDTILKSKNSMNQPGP

Point of comparison: `Cc1cc(Nc2nc(Nc3ccccc3S(=O)(=O)C(C)C)n3nccc3n2)c(OC(C)C)cc1C1CCN(Cc2cnn(C)c2)CC1` [Ex 6], IC50 80 nM. Against it:
- CNC(=O)CCN1CCC(c2cc(OC)c(Nc3nc(Nc4ccccc4S(=O)(=O)C(C)C)n4nccc4n3)cc2C)CC1 [Ex 90] — 6.2-fold lower, 13 nM
- COc1cc(C2CCN(C)CC2)c(C)cc1Nc1nc(Nc2ccccc2S(=O)(=O)C(C)C)n2nccc2n1 [Ex 3] — 4.2-fold lower, 19 nM
- COc1cc(C2CCN(C(=O)C3CCCN3)CC2)c(C)cc1Nc1nc(Nc2ccccc2S(=O)(=O)C(C)C)n2nccc2n1 (stereo not drawn) [Ex 31] — 2.2-fold lower, 36 nM
- COc1cc(C2CCN(C(=O)CCN3CCCC3)CC2)c(C)cc1Nc1nc(Nc2ccccc2S(=O)(=O)C(C)C)n2nccc2n1 [Ex 104] — 1.6-fold lower, 49 nM
- CNCC(=O)N1CCC(c2cc(OC)c(Nc3nc(Nc4ccccc4S(=O)(=O)C(C)C)n4nccc4n3)cc2C)CC1 [Ex 17] — 3.6-fold lower, 22 nM
- COc1cc(C2CCN(C(=O)[C@H](C)NC(C)C)CC2)c(C)cc1Nc1nc(Nc2ccccc2S(=O)(=O)C(C)C)n2nccc2n1 [Ex 64] — 2.9-fold lower, 28 nM
- COc1cc(C2CCN(C(=O)CN(C)C)CC2)c(C)cc1Nc1nc(Nc2ccccc2S(=O)(=O)C(C)C)n2nccc2n1 [Ex 2] — 7.3-fold lower, 11 nM
- CCCN(CCC)CC(=O)N1CCC(c2cc(OC)c(Nc3nc(Nc4ccccc4S(=O)(=O)C(C)C)n4nccc4n3)cc2C)CC1 [Ex 102] — 1.6-fold lower, 49 nM
- COc1cc(C2CCN(C(=O)[C@H](C)N(C)C)CC2)c(C)cc1Nc1nc(Nc2ccccc2S(=O)(=O)C(C)C)n2nccc2n1 [Ex 66] — 2.5-fold lower, 32 nM
- CN[C@H](C)C(=O)N1CCC(c2cc(OC)c(Nc3nc(Nc4ccccc4S(=O)(=O)C(C)C)n4nccc4n3)cc2C)CC1 [Ex 44] — 4.4-fold lower, 18 nM
- COc1cc(C2CCN(C(=O)[C@H](C)N3CC[C@@H](O)C3)CC2)c(C)cc1Nc1nc(Nc2ccccc2S(=O)(=O)C(C)C)n2nccc2n1 [Ex 79] — 2.1-fold lower, 38 nM
- COC[C@H](N)C(=O)N1CCC(c2cc(OC)c(Nc3nc(Nc4ccccc4S(=O)(=O)C(C)C)n4nccc4n3)cc2C)CC1 [Ex 94] — 5-fold lower, 16 nM
- COc1cc(C2CCN(C(=O)[C@@H](N)CO)CC2)c(C)cc1Nc1nc(Nc2ccccc2S(=O)(=O)C(C)C)n2nccc2n1 [Ex 69] — within 1.5-fold, 59 nM
- COc1cc(C2CCN(C(=O)CN3CC[C@@H](F)C3)CC2)c(C)cc1Nc1nc(Nc2ccccc2S(=O)(=O)C(C)C)n2nccc2n1 [Ex 62] — within 1.5-fold, 58 nM
- CC(C)S(=O)(=O)c1ccccc1Nc1nc(Nc2ccc3c(c2)CNCC3)nc2ccnn12 [Ex 42] — 13-fold higher, 1020 nM
- COc1cc(C2CCN(C(=O)CN3C[C@@H](O)[C@H](O)C3)CC2)c(C)cc1Nc1nc(Nc2ccccc2S(=O)(=O)C(C)C)n2nccc2n1 [Ex 21] — 3.6-fold higher, 286 nM
- COc1cc(C2CCNCC2)c(C)cc1Nc1nc(Nc2ccccc2S(=O)(=O)C(C)C)n2nccc2n1 [Ex 4] — 2.1-fold lower, 38 nM
- Cc1cc(C2CCN(C(=O)CCN(C)C)CC2)c(C)cc1Nc1nc(Nc2ccccc2S(=O)(=O)C(C)C)n2nccc2n1 [Ex 48] — within 1.5-fold, 59 nM
- COc1cc(C2CCN(C(=O)[C@H]3COC(C)(C)CN3)CC2)c(C)cc1Nc1nc(Nc2ccccc2S(=O)(=O)C(C)C)n2nccc2n1 [Ex 85] — 2.4-fold lower, 34 nM
- COc1cc(C2CCN(C(=O)[C@@H](C)N3CCCC3)CC2)c(C)cc1Nc1nc(Nc2ccccc2S(=O)(=O)C(C)C)n2nccc2n1 [Ex 96] — 2.5-fold lower, 32 nM
- COc1cc(C2CCN(C(=O)[C@H](C)NCCO)CC2)c(C)cc1Nc1nc(Nc2ccccc2S(=O)(=O)C(C)C)n2nccc2n1 [Ex 65] — 2.2-fold lower, 37 nM
- COc1cc(C2CCN(C3CCOCC3)CC2)c(C)cc1Nc1nc(Nc2ccccc2S(=O)(=O)C(C)C)n2nccc2n1 [Ex 83] — 3.5-fold lower, 23 nM
- COc1cc(C2CCN(C(=O)[C@@H]3C[C@H](F)CN3)CC2)c(C)cc1Nc1nc(Nc2ccccc2S(=O)(=O)C(C)C)n2nccc2n1 [Ex 54] — 1.9-fold lower, 42 nM
- Cc1cc(C2CCN(CCS(C)(=O)=O)CC2)c(C)cc1Nc1nc(Nc2ccccc2S(=O)(=O)C(C)C)n2nccc2n1 [Ex 45] — within 1.5-fold, 62 nM
- Cc1cc(Nc2nc(Nc3ccccc3S(=O)(=O)C(C)C)n3nccc3n2)ccc1C1CCN(CCS(C)(=O)=O)CC1 [Ex 47] — 1.7-fold lower, 46 nM
- COc1cc(C2CCN(C(=O)[C@@H]3COC(C)(C)CN3)CC2)c(C)cc1Nc1nc(Nc2ccccc2S(=O)(=O)C(C)C)n2nccc2n1 [Ex 87] — 2.8-fold lower, 29 nM
- COc1cc(C2CCN(C(=O)[C@H](C)N3CCC3)CC2)c(C)cc1Nc1nc(Nc2ccccc2S(=O)(=O)C(C)C)n2nccc2n1 [Ex 61] — 2.4-fold lower, 34 nM
- COCCNCC(=O)N1CCC(c2cc(OC)c(Nc3nc(Nc4ccccc4S(=O)(=O)C(C)C)n4nccc4n3)cc2C)CC1 [Ex 74] — 2.9-fold lower, 28 nM
- CNC(C)(C)C(=O)N1CCC(c2cc(OC)c(Nc3nc(Nc4ccccc4S(=O)(=O)C(C)C)n4nccc4n3)cc2C)CC1 [Ex 27] — 1.8-fold lower, 44 nM
- COc1cc(C2CCN(CCC(N)=O)CC2)c(C)cc1Nc1nc(Nc2ccccc2S(=O)(=O)C(C)C)n2nccc2n1 [Ex 13] — 5.3-fold lower, 15 nM
- COc1cc(C2CCN(C(=O)CN3CCCC3)CC2)c(C)cc1Nc1nc(Nc2ccccc2S(=O)(=O)C(C)C)n2nccc2n1 [Ex 15] — 2.6-fold lower, 31 nM
- COc1cc(C2CCN(CCC(=O)N3CCC3)CC2)c(C)cc1Nc1nc(Nc2ccccc2S(=O)(=O)C(C)C)n2nccc2n1 [Ex 89] — 5.3-fold lower, 15 nM
- Cc1cc(Nc2nc(Nc3ccccc3S(=O)(=O)C(C)C)n3nccc3n2)c(OC(C)C)cc1C1CCN(C)CC1 [Ex 1, N2-(2-isopropoxy-5-methyl-4-(1-methylpiperidin-4-yl)phenyl)-N4-(2-(isopropylsulfonyl)phenyl)pyrazolo[1,5-a][1,3,5]triazine-2,4-diamine] — within 1.5-fold, 115 nM
- CC(C)S(=O)(=O)c1ccccc1Nc1nc(Nc2ccc3c(c2)CCN(CCS(C)(=O)=O)C3)nc2ccnn12 [Ex 40] — 1.7-fold higher, 136 nM
- COc1cc(C2CCN(C(=O)[C@@H]3COCCN3)CC2)c(C)cc1Nc1nc(Nc2ccccc2S(=O)(=O)C(C)C)n2nccc2n1 [Ex 71] — 3.6-fold lower, 22 nM
- CC(C)S(=O)(=O)c1ccccc1Nc1nc(Nc2ccc3c(c2)CN(CCS(C)(=O)=O)CC3)nc2ccnn12 [Ex 39] — 5.8-fold higher, 464 nM
- COc1cc(C2CCN(C(=O)[C@@H]3C[C@H](O)CN3)CC2)c(C)cc1Nc1nc(Nc2ccccc2S(=O)(=O)C(C)C)n2nccc2n1 [Ex 55] — within 1.5-fold, 63 nM
- COc1cc(C2CCN(C(=O)CCCN(C)C)CC2)c(C)cc1Nc1nc(Nc2ccccc2S(=O)(=O)C(C)C)n2nccc2n1 [Ex 72] — within 1.5-fold, 58 nM
- COc1cc(C2CCN(CCS(C)(=O)=O)CC2)c(C)cc1Nc1nc(Nc2ccccc2S(=O)(=O)C(C)C)n2nccc2n1 [Ex 7] — 1.6-fold lower, 50 nM
- COc1cc(C2CCN(C(=O)CN3CC[C@H](O)C3)CC2)c(C)cc1Nc1nc(Nc2ccccc2S(=O)(=O)C(C)C)n2nccc2n1 [Ex 77] — 2.2-fold lower, 36 nM
- CC(C)S(=O)(=O)c1ccccc1Nc1nc(Nc2ccc(C3CCN(CC(N)=O)CC3)cc2)nc2ccnn12 [Ex 91] — 1.6-fold higher, 128 nM
